# Marks after values point to notes of the source that are not given here.
# System: patients with chronic hepatitis C who had developed anemia due to ribavirin/IFN α combination therapy
# Assay type: in vivo, human
# Conditions: average of 6 cases; p < 0.05 vs. before EPA administration (10.8 g/dL)
# Procedure: After the onset of anemia, each patient received 600 mg of EPA-E (trade name: Epadel, manufactured by Mochida Pharmaceutical Co., Ltd.) three times a day by oral administration every after meal for 2 months. Depending on the disease cases, the time of starting the administration of EPA-E varied within the range from 1 to 4 months after the start of administration of ribavirin/IFN α. In the ribavirin/IFN α combination therapy, ribavirin (trade name: Rebetol, manufactured by Schering-Plough Corporation) was orally administered to each patient of over 60 kg in body weight at a dose of 400 mg every after morning meal and every after evening meal as well, and to each patient of 60 kg or less at a dose of 200 mg every after morning meal and 400 mg every after evening meal. Simultaneously, 6 million IU a day of IFN α-2b (trade name: Intron A, manufactured by Schering-Plough Corporation) was intramuscularly administered everyday for two weeks, followed by intermittent administration of three times a week for 22 weeks.
smiles,measurement,value
"CC/C=C\C/C=C\C/C=C\C/C=C\C/C=C\CCCC(=O)OCC [EPA, eicosapentaenoic acid ethyl ester]","Hemoglobin level, average, after EPA administration for one month",11.4* g/dL
same,"Hemoglobin level, average, after EPA administration for two months",11.5* g/dL
